Source: patent US20110033560A1, “PREPARATION AND A COMPONENT INTENDED TO BE ADDED TO A TOBACCO PRODUCT” (BIOHIT OYJ, priority 2007, published 2011)

Key:
Assay type in all cases: in vivo, human
[1] = Salivary acetaldehyde during smoking while sucking the Example 1 tablet (Example 6); settings: sucking tablet with 20 mg cysteine, one cigarette, after the first 5 minutes, two testees
Description: Two individuals tested the preparation prepared according to Example 1. The salivary acetaldehyde contents of the testees were measured before smoking and then after 5 minutes during smoking, i.e., 0 min, 5 min, 10 min, and 15 min after the testees started smoking. Each testee smoked one cigarette and, at the same time, saliva was collected from their mouths, as they sucked placebo tablets. Smoking lasted for 5 min. In another test, the testees repeated the study by sucking tablets containing 20 mg of cysteine.

[2] = Salivary acetaldehyde during smoking with L-cysteine sucking tablets, gas chromatography (Example 7); settings: for average salivary acetaldehyde content immediately after smoking: 5 min smoking
Description: Five smokers (of the age of 29±2.8) participated in the study, in which three cigarettes were smoked (with cleaning periods in between). While smoking each cigarette (in 5 minutes time), the voluntaries sucked tablets blindfold, containing a placebo, 1.25 mg, 2.5 mg, 5 mg, 10 mg or 20 mg of L-cysteine. The acetaldehyde in the saliva samples was analysed by gas chromatography after 0, 5, 10, 20 minutes from starting to smoke.

[3] = Moistened cysteine filter in cigarette holder, salivary acetaldehyde during smoking (Example 9); settings: filter and cysteine in solid form (not moistened)
From the text: The entire filter of Marlboro Red was removed or, in some tests, a 2-3 mm piece of the original filter was left in the cigarette.
In the tests, the ready commercial cigarette holders/mouthpieces of Denicotea, www.denicotea.de, were used. In the cigarette holders/mouthpieces, plastic cylinder-shaped “containers” were used, in which the filter material was packed. The original content (intended for the removal of nicotine) of the containers was removed and replaced with the material that was used in the study. The outer dimensions of the container were: diameter 8 mm and length 35 mm.
Cellulose wadding (c. 100 mg), filter paper (Whattman),
Cysteine was dissolved in distilled water, 30-180 mg of L-Cysteine/1 ml. The manufacturer: Fluka, 30089.
[…] After this, the testees smoked the cigarettes that had been placed in the mouthpieces. During smoking, saliva samples were collected from those participating in the tests and the acetaldehyde in the saliva was analyzed by gas chromatography, Perkin-Elmer, HS40, headspace Gas Chromatograph.

[4] = Salivary acetaldehyde after alcohol with slow-release buccal tablet (Example 10); settings: buccal tablet 100 mg, alcohol 0.8 g/kg, every 20 min up to 320 min, FIG. 10
Description: The testees enjoyed alcohol in amounts of 0.8 g per kilo of body weight. Thereafter, the testees attached, under their upper lip, a buccal tablet that contained 100 mg of N-acetyl cysteine and that slowly released the acetyl cysteine. The salivary acetaldehyde levels were measured at intervals of 20 minutes up to 320 minutes. Throughout, the acetaldehyde contents of those using the acetyl cysteine tablets were lower than of those using the placebo.

Compound | salivary acetaldehyde content [1] | reduction of amount of acetaldehyde compared with placebo ([2]; 1.25 mg tablet) | average salivary acetaldehyde content immediately after smoking ([2]; 5 mg L-cysteine sucking tablet) [µM] | inactivation of carcinogenic acetaldehyde in saliva during smoking ([2]; 5 mg, delivered with a melting tablet) | average salivary acetaldehyde content immediately after smoking ([2]; 10 mg L-cysteine sucking tablet) [µM] | average salivary acetaldehyde content immediately after smoking ([2]; 20 mg L-cysteine sucking tablet) [µM] | removal from saliva of acetaldehyde originating from tobacco ([2]; tablets of 5 mg, 10 and 20 mg, FIG. 4) | filtering of acetaldehyde [3] | salivary acetaldehyde contents compared with placebo [4]
N[C@@H](CS)C(=O)O [L-cysteine] | non-measurable level | about two thirds | 0 | completely inactivated | 0 | 0 | all of the acetaldehyde | do not filter the acetaldehyde | –
CC(=O)N[C@@H](CS)C(=O)O [N-acetyl cysteine] | – | – | – | – | – | – | – | – | lower
